Measured values: patent US20050096370A1, “Method for inhibiting tumor angiogenesis and tumor growth” (Bizbiotech Co., Ltd., priority 2003, published 2005)

Columns and labels:
[1] = tested on: NCI-H87 gastric carcinoma; assay: NCI-H87 gastric carcinoma xenograft tumor growth in nude mice; assay type: in vivo; conditions: YC-1 30 μg/g daily i.p. 2 weeks, P<0.01
Experimental: Male nude mice were injected subcutaneously in the flank with 5×10^6 viable Hep3B hepatoma (A), NCI-H87 gastric carcinoma (B), SiHa cervical carcinoma (C), SK-N-MC neuroblastoma (E), or Caki-I renal carcinoma (F) cells. […] Tumor size was measured over time. […] Differences between tumor sizes in the vehicle- and YC-1-treated groups for mice with Hep3B tumors were compared using ANOVA and Duncan's multiple range tests. * denotes P<0.001 relative to the control. Differences between tumor sizes in the vehicle and YC-1-treated groups for mice with other tumors (B-E) were compared using a Mann-Whitney U test. Each number beneath the error bar represents the P value of the difference relative to the control.
Male nude (BALB/cAnNC˜-nu/nu) mice were purchased from Charles River Japan Inc. (Shin-Yokohama, JAPAN). The animals were housed in a specific pathogen-free room under controlled temperature and humidity. All animal procedures were performed according to the established procedures of the Seoul National University Laboratory Animal Maintenance Manual. Eighty mice aged 7-8 weeks were injected with tumor cells for the xenograft experiments. […]
Tumors were measured every 2 or 3 days with calipers in two dimensions and the tumor volumes were calculated using the formula: Volume=axb2/2, where a is the width at the widest point of the tumor and h is the width perpendicular to a. […]

Hep3B hepatoma tumors = assay: histology and immunohistochemistry (H&E, CD31, HIF-1α) of Hep3B xenograft tumors; assay type: in vivo, nude mice; conditions: 30 μg/g daily i.p. 2 weeks
Experimental: FIG. 7 is a picture showing histopathology for Hep3B hepatoma tumors grown in nude mice. Male nude mice were injected subcutaneously in the flank with 5×10^6 viable Hep3B cells. […] After the last treatment, the mice were euthanized, the tumors removed, fixed with formalin, and embedded in paraffin. Tumor sections were cut from the paraffin blocks and stained with hernatoxylin and eosin. v, vessel; a, acinus. Scale bar=50 μm.
FIG. 8 is a picture showing vascular distribution in Hep3B hepatoma tumors grown in nude mice. Male nude mice were injected subcutaneously in the flank with 5×10^6 viable Hep3B cells. […] After the last treatment, the mice were euthanized, the tumors removed, fixed with formalin, and embedded in paraffin. Tumor sections were cut from the paraffin blocks and processed for immunohistochemical staining to detect endothelial cells with an anti-CD31 antibody. The immunostained sections were developed using the avidinbiotin-horseradish peroxidase method with diaminobenzidine as the chromagen. The sections were lightly counterstained with hematoxylin. Arrows indicate CD31-positive vessels. Scale bar=50 μm.
FIG. 9 is a picture showing expression and distribution of HIF-1α in Hep3B hepatoma tumors grown in nude mice. Male nude mice were injected subcutaneously in the flank with 5×10^6 viable Hep3B cells. […] After the last treatment, the mice were euthanized, the tumors removed, fixed with formalin, and embedded in paraffin. Tumor sections were cut from the paraffin blocks and processed for immunohistochemical staining to detect HIF-1α with an anti-HIF-1α antibody. The immunostained sections were developed using the avidin-biotin-horseradish peroxidase method with diaminobenzidine as the chromagen. The sections were lightly counterstained with hematoxylin. Arrows indicate HIF-1α positive cells. nu, nuclear staining; pn, perinuclear staining. Scale bar=50 μm. […]
Because HIF-1 is important in angiogenesis, we next assessed HIF-1α expression in tumor sections from vehicle- and YC-1-treated mice (FIG. 9).

[2] = tested on: HIF-1-regulated genes (VEGF, aldolase A, enolase 1); assay: RT-PCR of HIF-1-regulated gene mRNA in Hep3B xenografts; assay type: in vivo, nude mice; conditions: 30 μg/g daily i.p. 2 weeks
Experimental: Male nude mice were injected subcutaneously in the flank with 5×10^6 viable Hep3B cells. […] After the last treatment, the mice were euthanized, the tumors removed and lysates prepared for mRNA analysis. The mRNA levels of VEGF, aldolase A, enolase 1, and β-actin were measured by semi-quantitative RT-PCR. The quality of the extracted RNAs was verified by identifying the 18S ribosomal RNA (rRNA) on a 1% denaturing agarose gel.
The quality of the extracted RNAs was verified by identifying the 18S ribosomal RNA (rRNA) on a 1% denaturing agarose gel. VEGF, aldolase A and enolase 1 mRNA levels were also lower in YC-1-treated tumors than in vehicle-treated tumors one experiment. Results are expressed as the mean and 95% confidence intervals of 4 separate experiments.

With `OCc1ccc(-c2nn(Cc3ccccc3)c3ccccc23)o1` [YC-1, 3-(5′-hydroxymethyl-2′-furyl)-1-benzylindazole] the “tumor size versus vehicle” value [1] was “statistically significantly smaller”, the “CD31-immunopositive vessels in tumor sections” value (Hep3B hepatoma tumors) was “Few CD31-immunopositive vessels” and the “HIF-1α immunoreactive cells in tumor sections” value (Hep3B hepatoma tumors) was “no HIF-1α inimunoreactive cells”. For the same compound, the “hematoxylin-eosin histology of tumor sections” value (Hep3B hepatoma tumors) was “frequent acinus formation without well-developed blood vessels” and the “VEGF, aldolase A and enolase 1 mRNA levels in tumors versus vehicle” value [2] was “lower”.
